Assay: xn = mol fraction of the nth substance listed

CCCCCCCC[n+]1ccc(C)cc1.[Br-] + CO/N=C(\C(=O)N[C@@H]1C(=O)N2C(C(=O)[O-])=C(CSc3nc(=O)c(=O)[n-]n3C)CS[C@H]12)c1csc(N)n1.[Na+].[Na+] + O
viscosity [mPa·s], 100 kPa
Details	288.15 K	293.15 K	298.15 K	303.15 K	308.15 K
x2 = 0, x1 = 0.0006354	1.179	1.031	0.915	0.817	0.737
x2 = 0, x1 = 0.0009577	1.196	1.046	0.929	0.833	0.749
x2 = 0, x1 = 0.001283	1.217	1.063	0.941	0.844	0.76
x2 = 0.0003362, x1 = 0.0009574	1.244	1.089	0.97	0.867	0.781
x2 = 0.0003451, x1 = 0.001283	1.269	1.108	0.977	0.863	0.786
x2 = 0.0003509, x1 = 0.0006352	1.243	1.076	0.949	0.847	0.77
x2 = 0.0008524, x1 = 0.0006349	1.314	1.15	1.021	0.909	0.816
x2 = 0.0008642, x1 = 0.001282	1.358	1.183	1.047	0.937	0.842
x2 = 0.0008856, x1 = 0.0009569	1.333	1.169	1.039	0.929	0.828
x2 = 0.001395, x1 = 0.0006346	1.411	1.235	1.094	0.974	0.873
x2 = 0.0014, x1 = 0.0009564	1.452	1.252	1.109	0.989	0.885
x2 = 0.00141, x1 = 0.001281	1.459	1.271	1.124	1.004	0.901
x2 = 0.001941, x1 = 0.0006342	1.52	1.33	1.174	1.046	0.936
x2 = 0.001965, x1 = 0.0009558	1.543	1.351	1.194	1.064	0.953
x2 = 0.00197, x1 = 0.001281	1.576	1.374	1.209	1.084	0.97
x2 = 0.002508, x1 = 0.0006339	1.642	1.433	1.264	1.124	1.006
x2 = 0.00254, x1 = 0.0009553	1.671	1.46	1.287	1.145	1.023
x2 = 0.00255, x1 = 0.00128	1.705	1.487	1.308	1.165	1.042
x2 = 0.003119, x1 = 0.0006335	1.786	1.558	1.372	1.219	1.091
x2 = 0.003121, x1 = 0.0009547	1.817	1.587	1.397	1.239	1.108
x2 = 0.003147, x1 = 0.001279	1.858	1.622	1.427	1.267	1.133
x2 = 0.003941, x1 = 0.0006329	2.01	1.747	1.535	1.359	1.212
x2 = 0.003972, x1 = 0.0009539	2.048	1.776	1.562	1.382	1.233
x2 = 0.003997, x1 = 0.001278	2.093	1.814	1.593	1.411	1.256
x2 = 0.004812, x1 = 0.0006324	2.281	1.979	1.732	1.528	1.36
x2 = 0.004853, x1 = 0.0009531	2.331	2.019	1.768	1.557	1.385
x2 = 0.004881, x1 = 0.001277	2.385	2.057	1.804	1.588	1.409
x2 = 0.005508, x1 = 0.000632	2.52	2.189	1.911	1.681	1.492
x2 = 0.005554, x1 = 0.0009524	2.59	2.238	1.952	1.714	1.52
x2 = 0.005588, x1 = 0.001276	2.64	2.289	1.996	1.757	1.559

CCCCCCCCCCCC[P+](CCCC)(CCCC)CCCC.c1c[n-]nn1 + COCCOCCOCCOCCOC
100 kPa
Details	viscosity [mPa·s]
278.15 K, x2 = 0.305	361
278.15 K, x2 = 0.596	73
288.15 K, x2 = 0.123	549
288.15 K, x2 = 0.395	124
293.15 K, x2 = 0.123	383
293.15 K, x2 = 0.495	59
298.15 K, x2 = 0.305	107

CCOCC[n+]1ccn(CCC#N)c1.O=S(=O)([N-]S(=O)(=O)C(F)(F)F)C(F)(F)F + CS(C)=O
101.3 kPa
Details	electrical conductivity [S/m]	viscosity [mPa·s]
293.15 K, x1 = 0.0989	0.00113	–
293.15 K, x1 = 0.1981	0.00401	–
293.15 K, x1 = 0.2776	0.00964	–
293.15 K, x1 = 0.597	0.0383	59.7
293.15 K, x1 = 0.798	–	102.3
293.15 K, x1 = 0.89	0.0703	210.3
303.15 K, x1 = 0.0989	0.00132	–
303.15 K, x1 = 0.1981	0.00478	–
303.15 K, x1 = 0.721	0.0577	40.7
313.15 K, x1 = 0.0989	0.00155	–
313.15 K, x1 = 0.1981	0.00607	–
323.15 K, x1 = 0.0989	0.00196	3.457
323.15 K, x1 = 0.1981	0.00772	4.04
323.15 K, x1 = 0.3971	0.0389	9.78
323.15 K, x1 = 0.5029	0.0621	13.05
323.15 K, x1 = 0.721	0.108	20.71

CC[n+]1ccn(C)c1.N#C[S-] + CS(C)=O
101 kPa, x1 = 0.3333
Details	viscosity [mPa·s]
293.15 K	3.24
308.15 K	2.36
328.15 K	1.57

CCCCCCCCCCCCCCCC[n+]1ccccc1.[Cl-] + CS(C)=O + O
electrical conductivity [S/m], 100 kPa
Details	293.15 K	298.15 K	303.15 K	308.15 K
x1 = 3.75e-06, x2 = 0.01199	0.0021	0.0024	0.0024	0.0026
x1 = 3.9e-06, x2 = 0.02499	0.0019	0.002	0.0023	0.0023
x1 = 4.07e-06, x2 = 0.03911	0.0015	0.0016	0.0017	0.0019
x1 = 4.26e-06, x2 = 0.05452	0.0014	0.0015	0.0017	0.0019
x1 = 7.5e-06, x2 = 0.01199	0.0037	0.0042	0.0044	0.0047
x1 = 7.81e-06, x2 = 0.02499	0.0034	0.0036	0.0041	0.0044
x1 = 8.15e-06, x2 = 0.03911	–	0.0032	0.0037	0.0041
x1 = 8.52e-06, x2 = 0.05452	0.0027	0.0029	–	0.0037
x1 = 1.124e-05, x2 = 0.01199	0.0053	0.006	0.0065	0.0071
x1 = 1.171e-05, x2 = 0.02499	0.0049	0.0053	0.0059	0.0065
x1 = 1.222e-05, x2 = 0.03911	0.0045	0.0048	0.0055	0.0062
x1 = 1.278e-05, x2 = 0.05452	0.0041	0.0044	0.0049	0.0055
x1 = 1.499e-05, x2 = 0.01199	0.0071	0.0078	0.0086	0.0094
x1 = 1.562e-05, x2 = 0.02499	0.0063	0.0071	0.0077	0.0089
x1 = 1.63e-05, x2 = 0.03911	0.006	0.0065	0.0075	0.0086
x1 = 1.704e-05, x2 = 0.05452	0.0056	0.0059	0.0066	0.0075
x1 = 1.874e-05, x2 = 0.01199	0.0085	0.0095	–	–
x1 = 1.952e-05, x2 = 0.02499	0.0078	0.0088	0.0097	–
x1 = 2.037e-05, x2 = 0.03911	0.0075	0.0082	0.0095	–
x1 = 2.13e-05, x2 = 0.05452	0.0069	0.0075	0.0083	0.0094
x1 = 2.249e-05, x2 = 0.01199	0.0095	–	–	–
x1 = 2.343e-05, x2 = 0.02499	0.0095	–	–	–
x1 = 2.444e-05, x2 = 0.03911	0.0091	0.0098	–	–
x1 = 2.556e-05, x2 = 0.05452	0.0082	0.009	0.01	–
x1 = 2.981e-05, x2 = 0.05452	0.0092	–	–	–

CCCCCCCCCCCC[N+](C)(C)C.[Br-] + CS(C)=O + O
298 K, 101 kPa
Details	electrical conductivity [S/m]
x2 = 0.05957, x1 = 0.0001378	0.0321
x2 = 0.09776, x1 = 0.001524	0.181
